Structures are written as SMILES. Where two headings read alike, the source gives them in different places.

One assay deals with T1, androgen receptor (AR) (Homo sapiens, UniProt P10275, T878A).
T1 construct: stably transfected eGFP-expressing LNCaP human prostate cancer cells (LN-ARR2PB-eGFP) containing an androgen responsive probasin-derived promoter; endogenous in cells; host or cells: LNCaP (LN-ARR2PB-eGFP)
T1 sequence (P10275 1-920 T878A): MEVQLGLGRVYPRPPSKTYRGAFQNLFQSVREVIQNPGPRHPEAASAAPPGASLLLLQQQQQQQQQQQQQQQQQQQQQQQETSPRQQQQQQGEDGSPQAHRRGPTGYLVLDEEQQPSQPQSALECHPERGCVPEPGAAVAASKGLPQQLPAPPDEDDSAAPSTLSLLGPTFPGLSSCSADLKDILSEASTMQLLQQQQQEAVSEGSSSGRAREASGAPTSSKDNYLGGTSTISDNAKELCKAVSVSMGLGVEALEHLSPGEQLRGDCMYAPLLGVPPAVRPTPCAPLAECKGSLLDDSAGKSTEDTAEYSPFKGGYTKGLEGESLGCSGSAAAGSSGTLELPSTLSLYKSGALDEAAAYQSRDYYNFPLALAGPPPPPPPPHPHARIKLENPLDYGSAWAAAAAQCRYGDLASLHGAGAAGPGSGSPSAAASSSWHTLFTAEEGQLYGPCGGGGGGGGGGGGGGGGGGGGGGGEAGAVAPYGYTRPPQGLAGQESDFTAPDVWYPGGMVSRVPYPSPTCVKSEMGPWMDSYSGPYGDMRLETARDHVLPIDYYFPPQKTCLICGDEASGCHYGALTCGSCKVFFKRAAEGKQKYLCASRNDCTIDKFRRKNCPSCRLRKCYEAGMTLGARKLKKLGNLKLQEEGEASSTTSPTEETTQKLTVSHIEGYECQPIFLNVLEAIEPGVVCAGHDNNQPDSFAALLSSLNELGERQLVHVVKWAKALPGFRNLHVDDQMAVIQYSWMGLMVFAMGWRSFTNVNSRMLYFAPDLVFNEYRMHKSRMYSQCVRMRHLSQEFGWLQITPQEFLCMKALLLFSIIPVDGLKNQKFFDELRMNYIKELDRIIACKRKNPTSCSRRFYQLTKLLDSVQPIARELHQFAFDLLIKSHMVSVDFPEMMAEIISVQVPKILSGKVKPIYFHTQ
The assay is described as follows: eGFP cellular AR transcription assay. It counts as cell-based. The method in brief:
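AR transcriptional activity is read as eGFP expression from a probasin-derived androgen-responsive promoter. Compound titrated 0-100 μM in the presence of 0.1 nM R1881; 35,000 cells/well.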

The subject of the next assay is PSA. Nature of the assay: Prostate Surface Antigen (PSA) assay, PSA excreted into the media. The format is cell-based, human. The note with it: same plates as eGFP assay. The protocol: The evaluation of PSA excreted into the media was performed in parallel to the eGFP assay using the same plates (see above description). After the cells were incubated for 3 days 150 μl of the media was taken from each well, and added to 150 μl of PBS.

[1] abbreviates: LN-ARR2PBeGFP LNCaP cells, 0.1 nM R1881, 3 days incubation.
[2] abbreviates: PSA excreted into media, 3 days incubation.
Where [3] appears, read: LN-ARR2PBeGFP LNCaP cells, 0.1 nM R1881, 3 days incubation, read-out: eGFP IC50.
Where [4] appears, read: Homo sapiens, 72 h, PSA excreted into media, 3 days incubation, read-out: PSA IC50.
The mark [5] stands for this setting: Homo sapiens, 72 h, media after 3 days, read-out: IC50 (PSA).

With `Cc1cccc2c(-c3ccc4scnc4c3)c[nH]c12` [Compound 13758], at androgen receptor (AR) (setting [1]), the “eGFP IC50” value is “Inactive”. In addition, the “PSA IC50” value in the assay on PSA (setting [2]) is recorded as “Inactive”.
Turning to `Cc1cccc2c(-c3ccc4ocnc4c3)c[nH]c12` [Compound 13759], the values for the IC50 on androgen receptor (AR) (setting [3]) and in the assay on PSA (setting [4]) were 300 nM and 270 nM, respectively.
In the case of `Cc1cccc2c(-c3nc4ccccc4s3)c[nH]c12` [Compound 13760], the results for the IC50 at androgen receptor (AR) (setting [3]) and in the assay with PSA (setting [4]) were 100 nM and 52 nM, respectively.
For the compound `Fc1ccc2nc(-c3c[nH]c4c(F)c(F)c(F)cc34)cnc2c1` [Compound 13762], the figures for the IC50 at androgen receptor (AR) (setting [3]) and in the assay with PSA (setting [4]) were 479 nM and 429 nM, respectively.
For the compound `Fc1ccc2c(-c3ccc4cccnc4c3)c[nH]c2c1` [Compound 13764], the 50% inhibitory concentration (IC50) (usually the concentration needed to halve the response being measured) was determined as 100 nM on androgen receptor (AR) (setting [3]), 82 nM in the assay on PSA (setting [4]) and 82 nM with PSA (setting [5]).
As for `Cc1cccc2c(-c3ccc4cnccc4c3)c[nH]c12` [Compound 13765], the “IC50 (eGFP)” value on androgen receptor (AR) (LN-ARR2PB-eGFP LNCaP cells, 0.1 nM R1881, 3 days, 0-100 μM compound) was “IC50 (eGFP) = inactive”. The “eGFP IC50” value at androgen receptor (AR) (setting [1]) is reported as “Inactive”. Also, the “PSA IC50” value in the assay with PSA (setting [2]) is listed as “Inactive”. Besides, the “IC50 (PSA)” value with PSA (media after 3 days) was “IC50 (PSA) = inactive”.
In the case of `Cc1cccc2c(-c3nc(Br)cs3)c[nH]c12` [Compound 13766], the IC50 on androgen receptor (AR) (LN-ARR2PB-eGFP LNCaP cells, 0.1 nM R1881, 3 days, 0-100 μM compound, read-out: IC50 (eGFP)) is 45 nM; on androgen receptor (AR) (setting [3]) it was 45 nM; in the assay with PSA (setting [4]), 20 nM; in the assay on PSA (setting [5]) it was 20 nM.
As to `Fc1cc2c(-c3ccc4cccnc4c3)c[nH]c2c(F)c1F` [Compound 13770], the figures for the half-inhibitory concentration (IC50) on androgen receptor (AR) (setting [3]) and in the assay on PSA (setting [4]) were 100 nM and 17 nM, respectively.
Regarding `CNC(=O)c1cccc2nc(-c3c[nH]c4c(C)c(F)c(F)cc34)ccc12` [Compound 13771], the IC50 on androgen receptor (AR) (setting [3]) came to 200 nM; in the assay with PSA (setting [4]), 90 nM.
The corresponding values for `Fc1ccc2ccc(-c3c[nH]c4c(F)c(F)c(F)cc34)nc2c1` [Compound 13772] are 200 nM and 172 nM.
Consider `Fc1cc2c(-c3ccc4cccc(Cl)c4n3)c[nH]c2c(F)c1F` [Compound 13773], for which the IC50 came to 300 nM at androgen receptor (AR) (setting [3]) and 303 nM with PSA (setting [4]).
With `Fc1cc2c(-c3ccc4cccc(F)c4n3)c[nH]c2c(F)c1F` [Compound 13774], the results for the IC50 at androgen receptor (AR) (setting [3]) and with PSA (setting [4]) were 700 nM and 773 nM, respectively.
For the compound `Fc1ccc2nc(-c3c[nH]c4c(F)c(F)c(F)cc34)ccc2c1` [Compound 13776], the half-inhibitory concentration (IC50) on androgen receptor (AR) (setting [3]) was 210 nM; with PSA (PSA excreted into media, 3 days incubation, read-out: PSA IC50), 190 nM.
